Series [1] has as its system GSH. As to the kind of experiment: Intracellular glutathione (GSH) in SgPC2 cells, GSH recycling assay. In kind it is cell-based, human. The settings on record: 20-40 μM BSO, 24 h.
Description: Intracellular GSH concentration was determined using a GSH recycling assay [35] and expressed as nmol/mg protein. ATP level was measured using the Somatic Cell ATP assay kit from Sigma-Aldrich, as previously described [32]. Protein level was determined with a bicinchoninic acid kit (Pierce Biotechnology, Inc., Rockford, Ill., USA).
Series [2] deals with SgJFH1-Luc RNA (subgenomic JFH1 replicon). As to the kind of experiment: SgJFH1-Luc RNA replication in Huh7 cells, luciferase assay. In kind it is cell-based, hepatitis C virus. The following applies: Huh7 cells transfected with SgJFH1-Luc RNA. The protocol: (§1) For viral RNA transfection, JFH1, JFH1/GND, and pSGR-JFH1-Luc were linearized with XbaI and used to synthesize the corresponding positive-sense stranded HCV RNA, as previously described (68). Then, 5×10^6 Huh7 cells were rinsed with Opti-Mem (Invitrogen), mixed briefly with 10-20 μg of the in vitro transcribed RNA in 0.4 ml of Opti-Mem, and then electroporated at 260 volts and 950 μF. […] Medium was changed daily. For infection with HCV, medium collected from JFH1 RNA-transfected cells were cleared of cell debris, as described, and added to naïve Huh7 cells. Typically, 1:2 or 3:2 ratio of the virus-containing medium and fresh cell culture medium were used.
SgJFH1-Luc RNA replication was also monitored by firefly luciferase reporter assay, using a kit from Promega.
To investigate whether the HCV RNA replication is modulated by ROS, Huh7 cells were transfected with the SgJFH1-Luc RNA and treated with GO plus glucose.
After 24 and 48 hours, respectively, the cells were collected in PBS, centrifuged, lysed in the reporter lysis buffer (Promega), and analyzed for luciferase activity.

In series [3] the test system is GSH. Put plainly: Intracellular GSH content in Huh7 cells (unpublished observation). In kind it is cell-based, human. The following applies: twenty to 100 μM BSO.
The test system of series [4] is subgenomic HCV replicon of genotype 1b. Put plainly: microbe, parasite or virus in culture. In kind it is cell-based, hepatitis C virus. The protocol:
Huh7 human hepatoma cells were cultured in Dulbecco's modified Eagle medium (DMEM; Invitrogen, Carlsbad, Calif., USA) supplemented with 10% fetal bovine serum (FBS; Invitrogen), 100 units/ml of penicillin, and 100 μg/ml of streptomycin in a 5% CO2 incubator. SgPC2 cells are G418-selected, pooled Huh7 cell clones that support the continuous replication of a subgenomic HCV replicon of genotype 1b and [29] (GenBank Accession No. AJ242652) that carries a S11791 adaptive mutation within the NS5A region. SgPC2 cells were maintained in the above medium supplemented with 0.5 mg/ml G418 (Invitrogen). G418 was removed at least 1 day before cell treatments.

In the next series the test system is JFH1 HCV (genotype 2a). In kind it is cell-based, hepatitis C virus. The protocol:
as §1
JFH1/GND was used as the negative control. When L-buthionine S,R-sulfoximine (BSO) was used, the cells were pretreated with BSO for 16-24 hrs prior to the initiation of treatments.
Intracellular JFH1 HCV RNA content was also analyzed by qRT-PCR (Taqman), using ABI7300 real time PCR system and one step RT-PCR kit from Applied Biosystems. The forward primer was 5′-[…]-3′ (nt. 146 to 164) and the reverse primer, 5′-[…]-3′ (nt. 277 to 295). The probe was 5′[…]3′ (nt. 168 to 188) and was fluorogenically labeled with FAM (5′) and TAMRA (3′) (Biosearch Technologies, Novato, Calif.). Briefly, the reactions were carried out at 48° C. for 30 min for reverse transcription, followed by denaturation at 95° C. for 10 min, and then 50 cycles of 15 sec denaturation at 95° C. plus 60 sec of annealing and extension at 60° C. All samples were analyzed in duplicates or triplicates. In vitro RNA transcripts were used to generate standard curve to determine RNA copy numbers. The level of 18S rRNA was also analyzed, using manufacturer-optimized protocol, as the control.
To analyze the amount of the extracellular HCV RNA, medium from the cells were cleared by low-speed centrifugation and then, treated with RNaseA at room temperature. Then, the RNA samples were extracted, using Trizol LS Reagent (Invitrogen), and analyzed for HCV RNA content by qRT-PCR.

Series [5] has as its system intracellular calcium concentration ([Ca^2+]i). As to the kind of experiment: [Ca^2+]i measurement with Indo-1 AM in SgPC2 cells. In kind it is cell-based, human. The protocol: Briefly, on the day of the experiment, cells were washed in Krebs-Ringer phosphate buffer (KRPH; pH 7.4, containing 1.0 mM MgSO4, 1.3 mM CaCl2, 10 mM Hepes, 5 mM glucose, 125 mM NaCl, 5 mM KCl, and 10 mM sodium phosphate) and subsequently loaded with 10-20 μM Indo-1 AM (70 μl/coverslip; Molecular Probes, Inc., Eugene, Oreg., USA) containing 10 μM probenecid (Molecular Probes) for 30 min at 37° C. The attached cells were washed and bathed in KRPH/probenecid at 4° C. or room temperature until further analysis. Then, coverslips were individually submerged into KRPH and preequilibrated inside the […] fluorimeter (Hitachi) in darkness for 3 min, and [Ca^2+]i was monitored continuously at 37° C., with excitation at […] and emission at 400 and 450 nm. H2O2 and other agents were injected at different time points, as indicated under Results. [Ca^2+]i was calculated as described. Rmax was determined by adding 8-16 μM digitonin and Rmin with 10 mM ethylene glycol-bis(β-aminoethyl)-N,N,N'-tetraacetic acid (EGTA). […] The baseline, which represented unstimulated cells scanned over time, was plotted along with other measurements or subtracted from the other plots. Cells were serum-depleted, 1 day before the experiment, by incubating them overnight in DMEM plus 0.5% FBS. […] Then, CaCl2 was added before determining the Rmax for each run.

The next series relates to JFH1-transfected cells. As to the kind of experiment: ATP concentration as cytotoxicity measure in JFH1-transfected cells. Here is the method: Determination of ATP concentrations—ATP level was measured, using Somatic Cell ATP Assay kit from Sigma-Aldrich, as previously described (68). Protein level was determined with bicinchoninic acid kit (Pierce Biotechnology, Inc., Rockford, Ill.).
ATP concentration was measured to determine if the treatments were cytotoxic to the cells.

A further series relates to genomic HCV RNA. The settings on record: Huh7 cells transfected with genomic HCV RNA, H2O2 24 h.
For series [6], the system named is SgPC2 cells. Here is the method:
Intracellular GSH concentration was determined using a GSH recycling assay and expressed as nmol/mg protein. ATP level was measured using the Somatic Cell ATP assay kit from Sigma-Aldrich, as previously described. Protein level was determined with a bicinchoninic acid kit (Pierce Biotechnology, Inc., Rockford, Ill., USA).

The test system of series [7] is SgPC2 cells. The settings on record: JC-1 and annexin V-FITC staining. The protocol: Mitochondrial membrane potential was measured with JC1, using a Guava cytometer (Guava Technologies, Inc.). Apoptosis was also monitored with annexin V-FITC, with a 96-Nexin kit from Guava Technologies, Inc.
The subject of series [8] is newly synthesized HCV RNA. Put plainly: 3H labeling of newly synthesized HCV RNA in SgPC2 cells. In kind it is cell-based, hepatitis C virus. The settings on record: 6 h. The protocol: One million SgPC2 cells were pretreated with 2 μM BAPTA-AM or DMSO alone for 1 h and then treated with 0 or 100 μM H2O2 in the presence of 100 μCi of [^3H]uridine (35-50 Ci/mmol; MP Biomedicals, Irvine, Calif., USA) and 4 μg/ml actinomycin D (Sigma-Aldrich) for 5 to 6 h and then lysed for the RNA isolation. RNA was analyzed on a 1% formaldehyde agarose gel, which was then treated with 1 M sodium salicylate for 20-30 min for fluorography. The RNA gel was also stained with ethidium bromide to visualize rRNA bands to serve as loading controls.

Each structure is given as a SMILES string. Like-named read-outs stand apart in the source and are kept apart here.

Description for genomic HCV RNA: Then, 5×10^6 Huh7 cells were rinsed with DMEM, mixed briefly with 10-20 μg of the subgenomic replicon RNA in 0.4 ml of DMEM, and then electroporated at 220 V and 975 μF. Then, 1 million cells were seeded onto 60-mm cell culture dishes in DMEM containing 10% FBS. Medium was changed daily and, after 2-4 days, the cells were preincubated with 1,2-bis(2-aminophenoxy)ethane-N,N,N′,N′-tetraacetic acid tetrakis acetoxymethyl ester (BAPTA-AM) or vehicle control alone for 1 h. Then, the cells were exposed to H2O2 for 24 h, and the amount of the HCV RNA was analyzed by Northern blot (see below).
Total RNA was extracted from cells, using Trizol reagent (Invitrogen), following the manufacturer's protocol. Five to 20 μg of RNA was then subjected to Northern blot analysis using a ^32P-labeled double-stranded DNA probe prepared from nt 3669 to nt 6016 of the subgenomic replicon. For these and all other experiments, RNA and protein bands were quantified with a phosphoimager (Cyclone; Perkin-Elmer) or by densitometry using SigmaScan (Jandel Scientific) or IS2000R (Kodak). The intensities of the bands of interest were normalized against the control glyceraldehyde-3-phosphate dehydrogenase (GAPDH) mRNA.

As for `CCCCS(=N)(=O)CCC(N)C(=O)O` (stereo not drawn) [BSO, 1-buthionine S,R-sulfoximine, reference compound], the “decrease of total intracellular GSH concentration” value with GSH [1] was “about 75%”. The “HCV RNA level by luciferase activity” value in series [2] is listed as “further suppressed HCV RNA”. The “decrease of intracellular GSH content” value in the series with GSH [3] is recorded as “about 60%”. For the same compound, the “effect on HCV RNA level / replication” value in series [4] (SgPC2 cells, Northern blot) is “sufficient to decrease the HCV RNA level”. The “intracellular HCV RNA level” value in the series with JFH1 HCV (genotype 2a) (JFH1-transfected cells, 20 uM) is on record as “significant suppression”. Also, the intracellular calcium concentration in series [5] (BSO-treated cells, after 24 h) was found to be 60.6 ± 4.3 nM. For the same compound, the “cytotoxicity (ATP concentration, cell survivability)” value in the series with JFH1-transfected cells was “did not cause any loss in cell survivability”.
Broadly, the IC50 is the concentration that gives 50% inhibition. For the compound `OO` [H2O2, Hydrogen peroxide], the “inositol 1,3-triphosphate (IP3) level” value with IP3 is recorded as “did not increase”. Further, in series [4], the “HCV RNA (normalized to GAPDH mRNA), % of untreated control” value was 36.8±16.6%. Moreover, the “effect on HCV RNA replication after 30 min of treatment” value in [4] is reported as “significant suppression”. The “suppression of HCV RNA level compared with IFN-γ” value in series [4] is reported as “as effective as 100 to 2500 U/ml IFN-γ”. The IC50 in series [4] (Hepatitis C virus, 24 h, read-out: IC50 of suppression of HCV RNA level) is ~25 µM. Besides, in the series on JFH1 HCV (genotype 2a), the “intracellular and extracellular HCV RNA levels” value is “significantly decreased”. In the series with genomic HCV RNA, the “genomic HCV RNA, % of untreated control” value came out at 34.0±4.0%. Also, the figures for the “total ATP content, % of untreated control” value in the series on SgPC2 cells [6] (30 min of treatment) and in the series on SgPC2 cells [6] (24 h of treatment) were 125.4±0.3% and 97.3±8.25%, respectively. Further, the “mitochondrial membrane potential or apoptosis” value in the series on SgPC2 cells [7] is reported as “no significant effect”. Further, the “AUC of [Ca^2+]i elevation” value in series [5] (100 μM H2O2, with BAPTA (2 μM BAPTA-AM pretreatment)) was 128.4±82.3 Ca^2+/min; in series [5] (100 μM H2O2, without BAPTA) it was 935.9±58.9 Ca^2+/min. Further, in series [5] (H2O2 pretreatment 13 min, no extracellular calcium), the “TG-induced calcium elevation after H2O2 pretreatment, % of control” value is given as 9.2±2.6%. Moreover, in series [5] (SgPC2 cells), the “change in [Ca^2+]i” value is given as “gradual rise”. Moreover, the “AUC of peroxide-induced calcium elevation” value in series [5] (with 1.3 mM extracellular calcium) was determined as 1278.5±109.5 Ca^2+/min; in [5] (without extracellular calcium), 1105.1±238.1 Ca^2+/min. Further, the “amount of HCV RNA synthesized ([3H]uridine, actinomycin D)” value in series [8] was “significantly decreased”.

(Values after patent US20090123447A1, “COMPOSITIONS AND METHODS TO INHIBIT RNA VIRAL REPRODUCTION” (priority 2007, published 2009).)
